Test results: ChEMBL document CHEMBL5634142, “Novel thienopyrimidones targeting hepatic and erythrocytic stages of Plasmodium parasites with increased microsomal stability” (Eur J Med Chem, 2023)
pEC50, pIC50: −log10 of the molar value.

Assays:
[1] = (§1) Cytotoxicity against Cynomolgous monkey hepatocytes harboring Simian virus assessed as reduction in cell viability administered for 3 hrs followed by replacement with fresh medium containing compound for every 24 hrs by DAPI staining based analysis; format: toxicity, Macaca fascicularis, Hepatocyte; settings: cynomolgus monkey
[2] = test system: Plasmodium berghei; experiment: as §1, with “Antiplasmodial activity” for “Cytotoxicity”, “against hepatic stage of Plasmodium berghei ANKA sporozoites infected in” for “against”, “parasite growth” for “cell viability”; format: functional, organism-based; settings: Hepatocyte
[3] = Stability in CD-1 mouse microsomes assessed as half-life in presence of NADP; format: ADME, Microsome
[4] = Stability in CD-1 mouse microsomes assessed as intrinsic clearance measured upto 40 mins in presence of NADP; format: ADME, Microsome
[5] = test system: Plasmodium falciparum; experiment: Antiplasmodial activity against erythrocytic stage of chloroquine, pyrimethamine and sulfadoxine resistant Plasmodium falciparum K1 infected in human erythrocytes assessed as reduction in parasite growth incubated for 72 hrs by SYBR green I fluorescence based spectrophotometric analysis; format: functional, organism-based; settings: K1, Erythrocyte
[6] = Selectivity index, ratio of CC50 for cytotoxicity against human HepG2 cells to EC50 for antiplasmodial activity against erythrocytic stage of chloroquine, pyrimethamine and sulfadoxine resistant Plasmodium falciparum K1 infected in human erythrocytes; format: toxicity, cell-based; settings: read-out: Ratio CC50/EC50
[7] = Cytotoxicity against human HepG2 cells assessed as reduction in cell viability incubated for 72 hrs by MTT assay; format: toxicity, cell-based
[8] = Solubility of compound in DMSO; format: physicochemical
[9] = target: Voltage-gated inwardly rectifying potassium channel KCNH2 (Homo sapiens, UniProt Q12809); experiment: Inhibition of hERG incubated for 4 hrs by fluorescence polarization assay; format: toxicity
[10] = Chromatographic hydrophobicity index, log D of the compound at pH 7.4 by HPLC analysis; format: physicochemical; settings: buffer
[11] = Effective permeability of compound at pH 7.4 incubated for 4 hrs by PAMPA-GIT assay; format: ADME; settings: read-out: Peff
[12] = Solubility of compound in PBS at 1 mg incubated for 10 mins by HPLC analysis; format: physicochemical
[13] = Effective permeability of compound at pH 5 incubated for 4 hrs by PAMPA-GIT assay; format: ADME; settings: read-out: Peff

Voltage-gated inwardly rectifying potassium channel KCNH2, sequence (Q12809 whole entry): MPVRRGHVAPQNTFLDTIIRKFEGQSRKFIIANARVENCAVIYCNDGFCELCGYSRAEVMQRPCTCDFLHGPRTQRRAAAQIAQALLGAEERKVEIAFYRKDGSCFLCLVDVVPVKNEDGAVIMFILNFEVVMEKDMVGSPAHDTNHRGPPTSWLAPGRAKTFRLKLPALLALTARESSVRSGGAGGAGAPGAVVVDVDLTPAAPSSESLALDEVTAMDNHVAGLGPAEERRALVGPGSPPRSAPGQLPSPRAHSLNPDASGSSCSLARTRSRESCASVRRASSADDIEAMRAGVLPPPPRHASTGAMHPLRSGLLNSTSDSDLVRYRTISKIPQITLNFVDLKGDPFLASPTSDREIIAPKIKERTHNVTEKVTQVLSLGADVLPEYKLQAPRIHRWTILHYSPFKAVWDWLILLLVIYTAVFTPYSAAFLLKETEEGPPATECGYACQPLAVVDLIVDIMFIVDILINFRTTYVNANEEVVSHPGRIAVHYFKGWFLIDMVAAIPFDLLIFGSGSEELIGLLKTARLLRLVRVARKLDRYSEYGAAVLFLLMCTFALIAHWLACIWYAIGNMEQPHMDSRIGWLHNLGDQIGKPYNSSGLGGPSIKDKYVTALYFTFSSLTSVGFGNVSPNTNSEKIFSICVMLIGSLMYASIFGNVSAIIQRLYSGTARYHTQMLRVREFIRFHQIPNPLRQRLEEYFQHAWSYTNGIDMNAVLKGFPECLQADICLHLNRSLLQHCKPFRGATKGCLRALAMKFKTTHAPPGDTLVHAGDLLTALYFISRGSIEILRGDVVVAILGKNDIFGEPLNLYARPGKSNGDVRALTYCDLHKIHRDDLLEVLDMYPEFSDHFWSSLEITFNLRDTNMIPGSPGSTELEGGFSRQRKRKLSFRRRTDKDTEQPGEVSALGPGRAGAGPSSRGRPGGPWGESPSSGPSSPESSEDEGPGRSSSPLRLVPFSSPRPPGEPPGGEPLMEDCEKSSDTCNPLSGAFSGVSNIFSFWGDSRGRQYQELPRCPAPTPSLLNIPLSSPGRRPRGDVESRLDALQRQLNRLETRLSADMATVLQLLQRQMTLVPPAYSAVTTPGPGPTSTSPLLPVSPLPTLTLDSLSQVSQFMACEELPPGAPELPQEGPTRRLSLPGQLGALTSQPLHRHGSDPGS

| SMILES | CC50 at 3 h [1] [µM] | pEC50 [2] | pEC50 [5] | selectivity ratio [6] | CC50 at 72 h [7] [µM] | other results |
| --- | --- | --- | --- | --- | --- | --- |
| Cc1ccc(-c2cc3nc(NC(C)C)[nH]c(=O)c3s2)cc1 | > 200 | 4.25 |  |  |  | half-life [3]: 11 min; microsomal CLint [4]: 214 µL/min/mg |
| Cc1ccc(-c2cc3nc(N)n(CCCN(C)C)c(=O)c3s2)cc1 |  |  | 5.01 | 0.42 | 4.1 |  |
| Cc1ccc(-c2cc3nc(NC4CC4)[nH]c(=O)c3s2)cc1 | > 100 | 5.26 | 6.05 | 4.4 | 4 | half-life [3]: 15 min; microsomal CLint [4]: 136 µL/min/mg |
| Cc1ccc(-c2cc3nc(N4CCN(C)CC4)[nH]c(=O)c3s2)cc1 |  |  | < 4.60 | < 0.3 | 8.7 |  |
| Cc1ccc(-c2cc3nc(N4CCCCC4)[nH]c(=O)c3s2)cc1 |  |  | < 4.60 |  | > 3.1 |  |
| Cc1ccc(-c2cc3nc(N4CCC4)[nH]c(=O)c3s2)cc1 |  |  |  |  |  | solubility [8]: Insoluble |
| Cc1ccc(-c2cc3nc(N[C@H]4CCNC4)[nH]c(=O)c3s2)cc1 |  |  | < 4.51 | < 0.4 | 13.2 |  |
| [2H]C([2H])([2H])C(Nc1nc2cc(-c3ccc(C)cc3)sc2c(=O)[nH]1)C([2H])([2H])[2H] | > 100 | 4.80 | 6.70 | > 50 | > 10 | half-life [3]: 11 min; microsomal CLint [4]: 214 µL/min/mg |
| CCn1c(NC(C)(C)C)nc2cc(-c3ccc(C)cc3)sc2c1=O |  |  | < 4.90 | 1.4 | 5.8 |  |
| Cc1ccc(-c2cc3nc(NC(C)(C)C)n(C(C)C)c(=O)c3s2)cc1 |  |  | 5.38 | > 0.9 | > 3.9 |  |
| Cc1ccc(-c2cc3nc(N4CCCC4)[nH]c(=O)c3s2)cc1 | > 200 | < 4.00 | 5.85 | > 2.1 | > 3.1 |  |
| Cc1ccc(-c2cc3nc(NC4CCCCC4)[nH]c(=O)c3s2)cc1 |  |  | < 4.90 |  | > 12.5 |  |
| Cc1ccc(-c2cc3nc(NC(C)(C)C(F)(F)F)[nH]c(=O)c3s2)cc1 |  |  | < 5.00 | > 10 | 23.9 |  |
| Cc1ccc(-c2cc3nc(NC4CCCC4)[nH]c(=O)c3s2)cc1 | > 100 | 4.98 | 5.85 | > 5.6 | > 7.8 | half-life [3]: 38 min; microsomal CLint [4]: 58 µL/min/mg |
| Cc1ccc(-c2cc3nc(N4CCOCC4)[nH]c(=O)c3s2)cc1 |  |  | < 5.00 | < 0.4 | 3.6 |  |
| [2H]C([2H])([2H])C(Nc1nc2cc(-c3ccc(C)cc3)sc2c(=O)[nH]1)(C([2H])([2H])[2H])C([2H])([2H])[2H] | > 100 | 4.86 | 7.00 | 149 | 17.9 | half-life [3]: 8.5 min; microsomal CLint [4]: 209 µL/min/mg |
| Cc1ccc(-c2cc3nc(NC(C)(C)C)n(-c4ccccc4)c(=O)c3s2)cc1 |  |  | < 4.90 |  | > 3.1 |  |
| Cc1ccc(-c2cc3nc(NC4CCC4)[nH]c(=O)c3s2)cc1 | > 100 | 4.95 | 5.96 | 12.7 | 14 | half-life [3]: 29 min; microsomal CLint [4]: 78 µL/min/mg |
| Cc1ccc(-c2cc3nc(N)n(C)c(=O)c3s2)cc1 |  |  | < 4.60 |  | > 6.2 |  |
| Cc1ccc(-c2cc3nc(C(C)(C)C)[nH]c(=O)c3s2)cc1 |  |  |  |  |  | pIC50 [9]: < 4.00 |
| Cc1ccc(-c2cc3nc(NC4CCC4)[nH]c(=O)c3s2)cc1.Cl |  |  |  |  |  | chromatographic logD [10]: 3.16; Papp at 4 h [11]: 4.36 ×10⁻⁶ cm/s; solubility at 10 min [12]: 1.4 µM; Papp at 4 h [13]: 18.1 ×10⁻⁶ cm/s; pIC50 [9]: < 4.00 |
| C[C@H]1c2cccc(O)c2C(=O)C2=C(O)[C@]3(O)C(=O)C(C(N)=O)=C(O)[C@@H](N(C)C)[C@@H]3[C@@H](O)[C@@H]21 [DOXYCYCLINE ANHYDROUS] |  |  |  | 4 |  |  |
| COc1cc(NC(C)CCCN)c2ncccc2c1 (stereo not drawn) [PRIMAQUINE] | > 50 | 5.14 |  |  |  |  |
